Reference: ChEMBL document CHEMBL5154737, “Semisynthesis and biological evaluation of (+)-sclerotiorin derivatives as antitumor agents for the treatment of hepatocellular carcinoma” (Eur J Med Chem, 2022)
Active and inactive are the calls of the source. The rule behind the calls is not given here.

What was measured:
Bel-7402 [1] = test: Effect on AKT signalling pathway in human Bel-7402 cells assessed as decrease in phosphorylated-AKT level upto 2.5 uM incubated for 24 hrs by Western blot analysis; format: functional, cell-based
[2] = Toxicity in ICR mouse assessed as change in neutrophile granulocyte level at 100 mg/kg, ip qd (reference value: 21.6 %); format: organism-based; conditions: in vivo
[3] = Tmax in Sprague-Dawley rat at 20 mg/kg, ip measured for 0.03 to 24 hrs by UPLC-MS analysis; format: ADME, organism-based; conditions: in vivo, time 0.03-24 hrs
[4] = Chronic toxicity in ICR mouse assessed as effect on liver morphology at 100 mg/kg, ip qd measured after 26 days by H and E staining method; format: organism-based; conditions: in vivo, 624 h, time 26 day
[5] = Chronic toxicity in ICR mouse assessed as effect on heart morphology at 100 mg/kg, ip qd measured after 26 days by H and E staining method; format: organism-based; conditions: in vivo, 624 h, time 26 day
[6] = Biodistribution in kidney of mouse bearing tumor measured after 24 hr by ICG dye based fluorescence imaging; format: ADME, organism-based; conditions: in vivo
Bel-7402 [7] = test: Induction of caspase dependent apoptosis in human Bel-7402 cells assessed as reduction in cell proliferation inhibition upto 10 uM incubated for 24 hrs in presence of Z-vad-fmk by MTT assay; format: functional, cell-based
Bel-7402 [8] = test: Antitumor activity against human Bel-7402 cells xenografted in BALB/c nude mouse assessed as tumor growth inhibition at 20 mg/kg, ip qd measured every 2 days for 14 days relative to control; format: functional; conditions: Bel-7402, 336 h, time 14 day, read-out: TGI
[9] = MRT (0 to t) in Sprague-Dawley rat at 20 mg/kg, ip measured for 0.03 to 24 hrs by UPLC-MS analysis; format: ADME, organism-based; conditions: in vivo, time 0.03-24 hrs
Bel-7402 [10] = test: Cytotoxicity against human Bel-7402 cells assessed as LDH release at 2.5 uM incubated for 24 hrs by LDH assay; format: functional, cell-based
Bel-7402 [11] = test: Induction of apoptosis in human Bel-7402 cells assessed as increase in cleaved PARP upto 2.5 uM incubated for 24 hrs by Western blot analysis; format: functional, cell-based
Bel-7402 [12] = test: Effect on ERK signalling pathway in human Bel-7402 cells assessed as increase in phosphorylated-ERK level upto 2.5 uM incubated for 24 hrs by Western blot analysis; format: functional, cell-based
[13] = Toxicity in BALB/c nude mouse xenografted with Bel-7402 cells assessed as behavioural change at 20 mg/kg, ip qd; format: organism-based; conditions: in vivo
Bel-7402 [14] = test: Induction of apoptosis in human Bel-7402 cells assessed as early apoptotic cells at 2.5 uM incubated for 24 hrs by Annexin V and dead cell assay kit (reference value: 3.75 %); format: functional
[15] = Sub-chronic toxicity in ICR mouse assessed as body weight change at 100 mg/kg/day, ip for 26 days; format: organism-based; conditions: in vivo, 624 h, time 26 day
ECa-109 cell line = test: Cytotoxicity against human Eca-109 cells assessed as reduction in cell viability incubated for 72 hrs by MTT assay; format: functional, cell-based; conditions: ECa-109, 72 h
Bel-7402 [16] = test: Induction of apoptosis in human Bel-7402 cells assessed as early apoptotic cells at 2.5 uM incubated for 24 hrs by Annexin V and Dead cell kit assay (reference value: 3.7 %); format: functional
Bel-7402 [17] = test: Induction of apoptosis in human Bel-7402 cells assessed as dead cells at 1.25 uM incubated for 24 hrs by Annexin V and dead cell assay kit (reference value: 0.80 %); format: functional
Bel-7402 [18] = test: Induction of apoptosis in human Bel-7402 cells assessed as late apoptotic cells at 2.5 uM incubated for 24 hrs in presence of U0126 by Annexin V and Dead cell kit assay (reference value: 3.85 %); format: functional
[19] = Biodistribution in tumor of mouse bearing tumor measured after 4 hr by ICG dye based fluorescence imaging; format: ADME, organism-based, Neoplasm; conditions: in vivo
Bel-7402 [20] = test: Upregulation of total protein ubiquitination level in human Bel-7402 cells at 2.5 uM by Western blot analysis; format: functional, cell-based; conditions: time <= 12.0 hrs, TDE = time-dependent effect
[21] = Toxicity in ICR mouse assessed as change in mean corpuscular hemoglobin level at 100 mg/kg, ip qd (reference value: 17.5 pg); format: organism-based; conditions: in vivo
Bel-7402 [22] = test: Induction of apoptosis in human Bel-7402 cells assessed as late apoptotic cells at 0.313 uM incubated for 24 hrs by Annexin V and dead cell assay kit (reference value: 4.45 %); format: functional
Bel-7402 [23] = test: Induction of apoptosis in human Bel-7402 cells assessed as necrotic cells at 2.5 uM incubated for 24 hrs in presence of U0126 by Annexin V and Dead cell kit assay (reference value: 1.6 %); format: functional
Bel-7402 [24] = test: Induction of apoptosis in human Bel-7402 cells assessed as late apoptotic cells at 2.5 uM incubated for 24 hrs by Annexin V and dead cell assay kit (reference value: 4.45 %); format: functional

CC[C@H](C)/C=C(C)/C=C/C1=CC2=C(Cl)C(=O)[C@](C)(O)C(=O)C2=CN1Cc1ccc(OC(F)(F)F)cc1
Activity (Bel-7402 [1]): Active | Activity [2]: 41.6% | Tmax [3]: 0.75 h | Activity [4]: Non-Toxic | Activity [5]: Non-Toxic | Activity [6]: Active | Activity (Bel-7402 [7]): Active | inhibition in vivo at 20 mg/kg (Bel-7402 [8]): 18.3% | MRT last [9]: 4.46 h | Activity (Bel-7402 [10]): Active | Activity (Bel-7402 [11]): Active | Activity (Bel-7402 [12]): Active | Activity [13]: Non-Toxic | Activity (Bel-7402 [14]): 16.55% | Activity [15]: Non-Toxic | IC50 (ECa-109 cell line): 1160 nM | Activity (Bel-7402 [16]): 25.8% | Activity (Bel-7402 [17]): 0.75% | Activity (Bel-7402 [18]): 36.9% | Activity [19]: Active | Activity (Bel-7402 [20]): Tde | Activity [21]: 16.8 pg | Activity (Bel-7402 [22]): 1.6% | Activity (Bel-7402 [23]): 7.75% | Activity (Bel-7402 [24]): 35.25%
